Patent US20030013717A1, “Use of cox-2 inhibitors for constipation” (priority 2000, published 2003)

How the values were obtained:
Rats = assay: Rat model of post-operative ileus (methylene blue meal transit); format: in vivo; details: 3 mg/kg intravenous infusion; four hours post-gavage; eight rats; p<0.05; vehicle 49.3 cm
Method: Activity in Vivo: Rat Model of Post Perative Ileus
The selective COX-2 inhibitor 2-(4-ethoxy-phenyl)-3-(4-methanesulfonyl-phenyl)-pyrazolo[1,5-b]pyridazine was evaluated in a rat model of post-operative ileus. The methodology represents a modification of the procedure described by McGill et al, Gastroenterology 116: A1040 (1999).
Rats (fourteen) received 0.5 cc of skimmed milk with methylene blue by gavage. Either vehicle (six rats) or 2-(4-ethoxy-phenyl)-3-(4-methanesulfonyl-phenyl)-pyrazolo[1,5-b]pyridazine (eight rats) was then administered by intravenous infusion. Rats were sacrificed four hours post-gavage and the distance the methylene blue meal traversed the intestine measured. The pylorus was set at 0 cm. With vehicle treatment, the meal traversed 49.3+1.3 cm while with 2-(4-ethoxy-phenyl)-3-(4-methanesulfonyl-phenyl)-pyrazolo[1,5-b]pyridazine (3 mg/kg), the meal traversed 67.8±1.1 cm (p<0.05).

[1] = test system: canine fundic circular muscle; assay: Smooth muscle in vitro model: fundic circular muscle strips, tension change; format: cell-based; details: test agent 10 μM; n=6-8 strips; FIG. 2
Beagle dogs = assay: Dog model of gastric emptying (solid phase, gamma camera); format: in vivo; details: po for three days, measured on fourth day after am dosing; cisapride 0.14 mg/kg TID, celecoxib 2.8 mg/kg BID, 8-acetyl compound 1.2 mg/kg BID; FIG. 3
Method: Activity in Vivo: Dog Model of Gastric Emptying
Beagle dogs were treated for three days with test agents (po administration): placebo BID; cisapride 0.14 mg/kg TID; celecoxib 2.8 mg/kg BID; or 8-acetyl-3-(4-fluoro-phenyl)-2-(4-methanesulfonyl-phenyl)-imidazo[1,2-a]pyridine 1.2 mg/kg BID. Solid phase gastric emptying was measured on the fourth day following am dosing. The same three animals were used for evaluation of each agent, thus reducing any interanimal variations.
Isotope-labeled solid food was fed to the dogs for their morning meal and animals were then placed under a gamma camera and scans performed over the 24 to 36 hours.

dogs = assay: Dog model of lower esophageal sphincter pressure (LESP); format: in vivo; details: 3 days treatment, measured day 4 after am dose; cisapride 0.14 mg/kg TID, celecoxib 1.2 mg/kg BID; compared to placebo; FIG. 4
Method: Activity in Vivo: Dog Model of Lower Esophageal Sphincter Pressure (LESP) Six adult dogs were instrumented with 14 French esophagostomy tubes. Animals were treated for 3 days with placebo (BID), cisapride (0.14 mg/kg TID) or celecoxib (1.2 mg/kg BID). On day 4 dogs received their am dose of test agent and water perfused manometry catheters were inserted through the esophagostomy tubes. Lower esophageal sphincter pressures (LESPs) were then monitored.

[2] = test system: canine antrum circular muscles; assay: Smooth muscle in vitro model: antral circular muscle strips, acetylcholine-induced contraction; format: cell-based; details: test agent 10 μM; acetylcholine 1 μM; organ bath, Krebs solution; n=4-8 strips; FIG. 1
Method: Smooth Muscle in Vitro Model of Gastric Propulsion
Agents which stimulate antral smooth muscle activity would be expected to enhance the rate of gastric emptying by propulsion of contents in the aboral direction. By contrast, fundic relaxation could lead to delayed emptying of the stomach as the upper stomach would serve as a reservoir for gastric contents.
The effects of test agents were evaluated on strips of canine antrum circular muscles (n=4-8 strips) suspended in organ baths bathed with Krebs solution. Following establishment of baseline tension, acetylcholine (“ACh”; 1 μM), indomethacin (10 μM), or 8-acetyl-3-(4-fluoro-phenyl)-2-(4-methanesulfonyl-phenyl)-imidazo[1,2-a]pyridine (“8-Acetyl- . . . ”; 10 μM) were applied and tension changes monitored and recorded on a polygraph.

CCOc1ccc(-c2nn3ncccc3c2-c2ccc(S(C)(=O)=O)cc2)cc1 [2-(4-ethoxy-phenyl)-3-(4-methanesulfonyl-phenyl)-pyrazolo[1,5-b]pyridazine]
distance the methylene blue meal traversed the intestine (pylorus = 0 cm) (Rats): 67.8±1.1 cm

CC(=O)c1cccn2c(-c3ccc(F)cc3)c(-c3ccc(S(C)(=O)=O)cc3)nc12 [8-acetyl-3-(4-fluoro-phenyl)-2-(4-methanesulfonyl-phenyl)-imidazo[1,2-a]pyridine]
relaxation / tension change of fundic circular muscle [1]: only small changes in tension
rate of solid phase gastric emptying (Beagle dogs): increased the rate of gastric emptying

COc1cc(N)c(Cl)cc1C(=O)NC1CCN(CCCOc2ccc(F)cc2)CC1OC (stereo not shown) [Cisapride, cisapride]
rate of solid phase gastric emptying (Beagle dogs): increased the rate of gastric emptying
lower esophageal sphincter pressure (LESP) (dogs): increased LESP

COc1ccc2c(c1)c(CC(=O)O)c(C)n2C(=O)c1ccc(Cl)cc1 [indomethacin]
sensitisation of antral circular muscle to acetylcholine-induced contractions [2]: enhanced acetylcholine-induced contractions
relaxation / tension change of fundic circular muscle [1]: near complete relaxation
